Molecules are shown by their SMILES. “And” between values parts separate entries of the source, which are not always exact repeats. Identical values can stand only once.

One assay has as its system LNL8 fibroblasts. The assay is described as follows: Immunofluorescent staining of Rad51 foci in nuclei and micronuclei. The class given is cell-based, human. The protocol: (§1) Cell Culture. The sources of the cell lines were as follows. Rat TGR-1 cells, J. Sedivy. Brown University; mouse 3T3-Swiss cells, ATCC; human 293 kidney cells, ATCC; human teratoma cells, B. King, Yale University; human LNL8 fibroblasts, S. Meyn, Yale: human XPA and XPF fibroblasts, P Glazer, Yale.
(§2) Monolayer cultures were grown in D-MEM medium supplemented with 10% fetal bovine serum and antibiotics.
(§3) Immunofluorescent Staining.
(§4) Digital Imaging Microscopy.

Assay [1] concerns TGR-1 cells. The assay is described as above. The class given is cell-based, rat. As for the experimental part: as §1, §2, §3, §4
For assay [2], the system named is TGR-1 cells.
The subject of assay [3] is TGR-1 cells. The assay is described as follows: Apoptosis by fluorescence in situ end labeling (FISEL). The class given is cell-based, rat. The conditions noted are these: for Percentage of Apoptotic Cells: FISEL+.
Experimental: Fluorescence In Situ End Labeling (FISEL). FISEL detects cell death (apoptosis) in situ by quantitating DNA strand breaks in individual nuclei. It uses terminal transferase (TdT) to label the 3'-ends in fragmented genomic DNA with biotinylated nucleotide. 100 µl of reaction mix contain 1 µl (25 Units) TdT (Boehringer Mannheim), 20 µl 5xTdT buffer (supplied with the enyzme), 1 µl 0.5 mM biotin-II-dUTP, 3 µl 0.5 mM dTTP, and 75 µl ddH2O. Cytological preprations are incubated at 37°C for 1 hr with this reaction mix. Washing the slides for 3x5 min in PBS is sufficient to terminate the reaction. The incorporated biotin-dUTP is detected with rhodarnine-conjugated avidin.
Another more classical way for inducing apoptosis in vitro is the exposure of TGR-1 cells to the topoisomerase II inhibitor etoposide.
[4] abbreviates: LNL8, 10^-5 M 5-aza-dC added 24 hrs before cell harvest.
[5] abbreviates: TGR-1, 10^-5 M 5-aza-dC added 24 hrs before cell harvest.
Setting [6] is: TGR-1, 2 hrs in medium containing etoposide.
Setting [7] is: TGR-1, 5 hrs in medium containing etoposide.
Where [8] appears, read: TGR-1, 12 hrs in medium containing etoposide.
Setting [9] is: TGR-1, 18 hrs in medium containing etoposide.
The mark [10] stands for this setting: TGR-1, 24 hrs in medium containing etoposide.
Setting [11] is: TGR-1, 36 hrs in medium containing etoposide.

With `Nc1ncn([C@H]2C[C@H](O)[C@@H](CO)O2)c(=O)n1` [5-aza-dC, 5-azadeoxycytidine], in the assay on LNL8 fibroblasts (setting [4]), the “Percentage of Cells with Type I Foci in Micronuclei” value was 1%, the “Percentage of Cells with Type I Foci in Nuclei” value stood at 3%, the “Percentage of Cells with Type II Foci in Micronuclei” value came out at 5% and the “Percentage of Cells with Type II Foci in Nuceli” value is listed as 2%. Further, the “Percentage of Cells without Foci” value in the assay with LNL8 fibroblasts (setting [4]) is 89%. Besides, the “cells displaying MN with focally concentrated Rad51 protein” value in the assay on LNL8 fibroblasts (human LNL8 fibroblast cultures, non-lethal doses of 5-aza-dC, range stated jointly with TGR-1) is 5-10%. For the same molecule, the “cells displaying MN with focally concentrated Rad51 protein” value in the assay with TGR-1 cells [1] (Rat TGR-1 cultures, non-lethal doses of 5-aza-dC, range stated jointly with LNL8) is 5-10%. For the same molecule, in the assay on TGR-1 cells [1] (setting [5]), the “Percentage of Cells with Type I Foci in Micronuclei” value was determined as 4%, the “Percentage of Cells with Type I Foci in Nuclei” value stood at 5%, the “Percentage of Cells with Type II Foci in Micronuclei” value stood at 4% and the “Percentage of Cells with Type II Foci in Nuceli” value came to 1%. The “Percentage of Cells without Foci” value in the assay on TGR-1 cells [1] (setting [5]) is reported as 86%.

With `CN[C@H]1CCc2cc(OC)c(OC)c(OC)c2-c2ccc(OC)c(=O)cc21` [Colcemid, colcemid], in the assay with TGR-1 cells [2], the “Percentage of Cells Showing Rad 51+/ FISEL+” value was 0% and 1% and 6% and 4%; the “Percentage of Cells Showing Rad51-/ FISEL-” value is 85% and 54% and 45% and 43%; the “induced MN containing very brightly fluorescing Rad51 foci” value is recorded as “over 30%”.

Consider `COc1cc([C@@H]2c3cc4c(cc3[C@@H](O[C@@H]3O[C@@H]5CO[C@@H](C)O[C@H]5[C@H](O)[C@H]3O)[C@H]3COC(=O)[C@H]23)OCO4)cc(OC)c1O` [etoposide], for which the “Percentage of Cells with Type I Foci in Micronuclei” value with TGR-1 cells [1] (setting [6]) amounted to 1%; in the assay with TGR-1 cells [1] (setting [7]), 2%; in the assay on TGR-1 cells [1] (setting [8]), 2%; in the assay on TGR-1 cells [1] (setting [9]), 8%; with TGR-1 cells [1] (setting [10]) it was 2%; in the assay on TGR-1 cells [1] (setting [11]) it was 5%. In addition, the “Percentage of Cells with Type I Foci in Nuclei” value in the assay with TGR-1 cells [1] (setting [6]) is listed as 4%; in the assay on TGR-1 cells [1] (setting [7]) it was 3%; with TGR-1 cells [1] (setting [8]) it was 8%; in the assay with TGR-1 cells [1] (setting [9]) it was 3%; with TGR-1 cells [1] (setting [10]), 2%; in the assay on TGR-1 cells [1] (setting [11]), 2%. In addition, the “Percentage of Cells with Type II Foci in Micronuclei” value with TGR-1 cells [1] (setting [6]) came out at 2%; in the assay with TGR-1 cells [1] (setting [7]), 2%; with TGR-1 cells [1] (setting [8]), 2%; with TGR-1 cells [1] (setting [9]) it was 9%; in the assay with TGR-1 cells [1] (setting [10]) it was 8%; in the assay on TGR-1 cells [1] (setting [11]), 9%. In addition, the “Percentage of Cells with Type II Foci in Nuclei” value in the assay with TGR-1 cells [1] (setting [6]) was 1%; with TGR-1 cells [1] (setting [7]) it was 1%; in the assay on TGR-1 cells [1] (setting [8]), 1%; in the assay on TGR-1 cells [1] (setting [9]), 1%; in the assay with TGR-1 cells [1] (setting [10]), 6%; in the assay on TGR-1 cells [1] (setting [11]), 1%. Also, the “Percentage of Cells without Foci” value came out at 92% with TGR-1 cells [1] (setting [6]); 92% in the assay on TGR-1 cells [1] (setting [7]); 87% with TGR-1 cells [1] (setting [8]); 79% in the assay on TGR-1 cells [1] (setting [9]); 82% with TGR-1 cells [1] (setting [10]); 83% with TGR-1 cells [1] (setting [11]). Moreover, the “Percentage of Apoptotic Cells” value worked out at 17% with TGR-1 cells [3] (12 hrs in medium containing etoposide), 24% in the assay with TGR-1 cells [3] (18 hrs in medium containing etoposide), 33% in the assay on TGR-1 cells [3] (24 hrs in medium containing etoposide) and 47% in the assay on TGR-1 cells [3] (36 hrs in medium containing etoposide). For the same molecule, in the assay with TGR-1 cells [3] (36 hrs after adding etoposide to the culture medium), the “cells showing genome fragmentation, stained FISEL-positively” value is given as “half”.

For the origin of these results see EP0960338B1, “DIAGNOSTIC METHODS AND COMPOSITIONS BASED ON THE DISTRIBUTION OF RAD51” (Yale University, priority 1997, dated 1998).
